Experimental data published in ChEMBL document CHEMBL1201862, “PubChem BioAssay data set” (2004).
Blank lines part the entries; values can stand above or below the compound they belong to. Active and inactive are the calls of the source.

Assays:
[1] = loss of A549 viability via ATP – cell-based, plate reader, dry powder, set 7, cytotoxicity control, dose response (AID 743318); type: functional
[2] = Luminescence Cell-Based Dose Confirmation HTS to Identify Inhibitors of Polyadenylation.; type: functional
[3] = biological target: T1, DNA repair and recombination protein RAD54-like (Homo sapiens, UniProt Q92698); experiment: RAD54 Holliday junction migration blockers – biochemical, fluorescence, cherry-picked samples, dose series, confirmation (AID 651657); type: functional
T1 sequence (Q92698 whole entry): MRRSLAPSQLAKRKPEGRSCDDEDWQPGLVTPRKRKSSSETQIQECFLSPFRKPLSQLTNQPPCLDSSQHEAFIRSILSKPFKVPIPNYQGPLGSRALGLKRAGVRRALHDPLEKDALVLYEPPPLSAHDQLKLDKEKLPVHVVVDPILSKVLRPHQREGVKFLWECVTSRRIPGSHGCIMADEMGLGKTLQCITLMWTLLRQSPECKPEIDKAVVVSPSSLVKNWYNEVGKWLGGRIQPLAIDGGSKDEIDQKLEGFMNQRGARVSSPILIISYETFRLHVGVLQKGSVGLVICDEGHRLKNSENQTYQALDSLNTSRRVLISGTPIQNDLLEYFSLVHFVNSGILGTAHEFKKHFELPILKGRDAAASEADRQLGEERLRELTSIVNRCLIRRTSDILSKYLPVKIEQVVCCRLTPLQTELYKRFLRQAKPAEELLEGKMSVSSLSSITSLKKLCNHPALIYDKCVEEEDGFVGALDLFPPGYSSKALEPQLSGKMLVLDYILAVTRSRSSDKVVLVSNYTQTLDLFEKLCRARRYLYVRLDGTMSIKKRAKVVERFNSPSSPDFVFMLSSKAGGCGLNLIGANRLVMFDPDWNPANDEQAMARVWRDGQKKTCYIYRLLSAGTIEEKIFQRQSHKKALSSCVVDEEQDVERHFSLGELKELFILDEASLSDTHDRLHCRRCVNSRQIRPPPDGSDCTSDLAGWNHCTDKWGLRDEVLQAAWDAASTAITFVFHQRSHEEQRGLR

[4] = biological target: DNA (cytosine-5)-methyltransferase 1 (Homo sapiens, UniProt P26358); experiment: inhibition of DNA methylation by DNMT1 – biochemical, fluorescent molecular beacon, confirmation (AID 602386); type: functional
Sequence of DNA (cytosine-5)-methyltransferase 1 (P26358 whole entry): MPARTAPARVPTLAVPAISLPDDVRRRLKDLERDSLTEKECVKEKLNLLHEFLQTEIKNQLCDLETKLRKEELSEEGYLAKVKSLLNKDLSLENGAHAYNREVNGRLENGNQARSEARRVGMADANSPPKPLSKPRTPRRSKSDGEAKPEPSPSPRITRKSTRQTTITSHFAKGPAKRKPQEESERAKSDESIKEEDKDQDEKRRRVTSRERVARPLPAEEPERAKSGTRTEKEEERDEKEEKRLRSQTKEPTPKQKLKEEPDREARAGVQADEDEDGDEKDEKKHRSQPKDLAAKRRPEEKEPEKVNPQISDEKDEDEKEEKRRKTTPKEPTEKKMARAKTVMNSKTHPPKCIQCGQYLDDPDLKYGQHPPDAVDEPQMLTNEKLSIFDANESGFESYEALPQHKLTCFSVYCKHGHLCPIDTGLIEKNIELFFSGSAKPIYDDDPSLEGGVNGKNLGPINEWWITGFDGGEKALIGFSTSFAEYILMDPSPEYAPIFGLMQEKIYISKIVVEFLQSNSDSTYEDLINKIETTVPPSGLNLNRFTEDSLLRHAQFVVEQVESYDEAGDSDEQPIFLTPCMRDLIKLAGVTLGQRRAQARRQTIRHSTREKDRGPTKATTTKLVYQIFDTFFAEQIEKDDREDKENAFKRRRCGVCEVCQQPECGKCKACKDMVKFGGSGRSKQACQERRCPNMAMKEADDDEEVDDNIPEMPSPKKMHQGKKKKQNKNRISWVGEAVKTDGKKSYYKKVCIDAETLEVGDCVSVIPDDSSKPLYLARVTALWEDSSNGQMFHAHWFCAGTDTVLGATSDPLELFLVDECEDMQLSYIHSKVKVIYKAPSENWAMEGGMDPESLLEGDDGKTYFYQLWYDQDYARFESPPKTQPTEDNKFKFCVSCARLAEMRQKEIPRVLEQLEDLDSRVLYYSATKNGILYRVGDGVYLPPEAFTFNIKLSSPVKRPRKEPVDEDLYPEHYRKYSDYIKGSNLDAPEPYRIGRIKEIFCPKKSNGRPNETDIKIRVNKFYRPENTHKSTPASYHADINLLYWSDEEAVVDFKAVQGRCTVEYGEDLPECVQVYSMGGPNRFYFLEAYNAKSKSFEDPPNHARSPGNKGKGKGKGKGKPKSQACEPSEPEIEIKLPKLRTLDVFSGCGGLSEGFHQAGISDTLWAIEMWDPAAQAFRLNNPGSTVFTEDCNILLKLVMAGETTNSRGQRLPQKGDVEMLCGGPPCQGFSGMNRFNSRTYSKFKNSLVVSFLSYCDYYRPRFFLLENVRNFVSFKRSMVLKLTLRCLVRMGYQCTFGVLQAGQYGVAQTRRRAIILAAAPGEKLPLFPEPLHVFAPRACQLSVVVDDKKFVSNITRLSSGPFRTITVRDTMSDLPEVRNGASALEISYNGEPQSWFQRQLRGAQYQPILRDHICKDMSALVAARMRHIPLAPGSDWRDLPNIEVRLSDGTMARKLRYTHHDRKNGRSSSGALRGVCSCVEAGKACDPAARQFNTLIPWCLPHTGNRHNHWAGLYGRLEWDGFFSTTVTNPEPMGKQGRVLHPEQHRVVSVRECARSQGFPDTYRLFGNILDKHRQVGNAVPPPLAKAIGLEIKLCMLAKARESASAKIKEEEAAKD

[5] = acridine orange displacement from DNA – biochemical, fluorescence polarization, cherry-pick, artefact control for RAD54 inhibitor project, dose response (AID 651673); type: functional
[6] = biological target: T2, DNA repair protein RAD52 homolog (Homo sapiens, UniProt P43351); type: functional, biochemical
T2 sequence (P43351 whole entry): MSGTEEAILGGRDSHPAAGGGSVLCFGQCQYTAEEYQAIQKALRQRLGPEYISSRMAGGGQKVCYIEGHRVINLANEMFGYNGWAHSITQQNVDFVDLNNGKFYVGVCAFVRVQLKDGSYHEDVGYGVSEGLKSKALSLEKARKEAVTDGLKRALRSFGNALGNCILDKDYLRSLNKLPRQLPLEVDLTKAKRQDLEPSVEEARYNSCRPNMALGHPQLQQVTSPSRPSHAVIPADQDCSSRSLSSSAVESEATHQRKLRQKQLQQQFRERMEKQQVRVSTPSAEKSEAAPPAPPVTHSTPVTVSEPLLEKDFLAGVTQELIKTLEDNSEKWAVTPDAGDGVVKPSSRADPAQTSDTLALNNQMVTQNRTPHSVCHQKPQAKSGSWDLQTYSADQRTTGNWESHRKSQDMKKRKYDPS

[7] = biological target: Heat shock protein HSP 90-alpha (Homo sapiens, UniProt P07900); experiment: Luminescence-based dose response biochemical high throughput screening assay for inhibitors of the Heat Shock Protein 90 (HSP90). [Related pubchem assays: 1831 (Summary AID.), 1846 (Confirmation screen.), 1789 (Primary screen.)]
[8] = biological target: Aryl hydrocarbon receptor (Homo sapiens, UniProt P35869); experiment: Luminescence-based cell-based high throughput dose response assay for activators of the Aryl Hydrocarbon Receptor (AHR). [Related pubchem assays: 2796 (Primary screen (AHR activators in singlicate)), 2845 (Confirmation screen (AHR activators in triplicate)), 434939 (Counterscreen (PXR activators in triplicate)), 2804 (Summary (AHR activators))]; type: ADME
Sequence of Aryl hydrocarbon receptor (P35869 whole entry): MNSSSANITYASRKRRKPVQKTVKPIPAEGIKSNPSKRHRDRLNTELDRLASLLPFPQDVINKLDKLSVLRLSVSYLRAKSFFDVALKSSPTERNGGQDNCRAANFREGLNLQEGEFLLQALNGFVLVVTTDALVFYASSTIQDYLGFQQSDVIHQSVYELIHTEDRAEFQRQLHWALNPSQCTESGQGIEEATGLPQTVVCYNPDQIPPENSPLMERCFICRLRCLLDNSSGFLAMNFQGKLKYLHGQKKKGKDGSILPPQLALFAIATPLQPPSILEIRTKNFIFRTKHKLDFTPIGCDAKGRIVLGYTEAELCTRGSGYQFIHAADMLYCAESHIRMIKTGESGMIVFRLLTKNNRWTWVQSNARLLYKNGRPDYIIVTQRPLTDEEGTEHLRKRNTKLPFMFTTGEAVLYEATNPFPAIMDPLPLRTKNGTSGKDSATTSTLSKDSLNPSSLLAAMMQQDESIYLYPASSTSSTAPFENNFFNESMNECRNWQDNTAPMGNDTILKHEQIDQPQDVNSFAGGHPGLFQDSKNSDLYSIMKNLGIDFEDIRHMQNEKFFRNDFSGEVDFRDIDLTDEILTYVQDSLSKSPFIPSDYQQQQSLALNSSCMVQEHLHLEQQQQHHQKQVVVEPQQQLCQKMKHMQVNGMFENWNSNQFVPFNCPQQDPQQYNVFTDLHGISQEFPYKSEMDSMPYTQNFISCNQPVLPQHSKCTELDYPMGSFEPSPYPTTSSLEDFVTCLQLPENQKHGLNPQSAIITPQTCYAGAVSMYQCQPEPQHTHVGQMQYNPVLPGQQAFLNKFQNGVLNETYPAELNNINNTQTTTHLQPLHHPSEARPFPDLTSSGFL

[9] = biological target: Mitogen-activated protein kinase 10 (Homo sapiens, UniProt P53779); experiment: Dose response biochemical screening assay for inhibitors of c-Jun N-Terminal Kinase 3 (JNK3). [Related pubchem assays: 746 ]
Sequence of Mitogen-activated protein kinase 10 (P53779 whole entry): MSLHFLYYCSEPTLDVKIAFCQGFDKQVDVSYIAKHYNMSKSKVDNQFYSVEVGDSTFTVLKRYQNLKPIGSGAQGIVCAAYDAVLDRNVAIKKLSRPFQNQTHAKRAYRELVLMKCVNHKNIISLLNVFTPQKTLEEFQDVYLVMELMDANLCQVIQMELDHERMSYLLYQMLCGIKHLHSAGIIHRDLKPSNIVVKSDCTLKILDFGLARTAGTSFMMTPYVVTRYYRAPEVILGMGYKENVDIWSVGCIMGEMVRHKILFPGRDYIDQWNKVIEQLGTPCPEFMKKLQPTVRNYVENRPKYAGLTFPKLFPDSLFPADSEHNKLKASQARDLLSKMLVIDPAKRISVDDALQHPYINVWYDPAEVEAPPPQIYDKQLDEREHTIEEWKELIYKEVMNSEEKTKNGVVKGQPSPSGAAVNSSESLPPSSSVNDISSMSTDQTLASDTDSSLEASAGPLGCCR

[10] = biological target: T3, Mannose-6-phosphate isomerase (Homo sapiens, UniProt P34949); experiment: phosphomannose isomerase inhibition – biochemical, fluorescence intensity, confirmation (AID 1535)
T3 sequence (P34949 whole entry): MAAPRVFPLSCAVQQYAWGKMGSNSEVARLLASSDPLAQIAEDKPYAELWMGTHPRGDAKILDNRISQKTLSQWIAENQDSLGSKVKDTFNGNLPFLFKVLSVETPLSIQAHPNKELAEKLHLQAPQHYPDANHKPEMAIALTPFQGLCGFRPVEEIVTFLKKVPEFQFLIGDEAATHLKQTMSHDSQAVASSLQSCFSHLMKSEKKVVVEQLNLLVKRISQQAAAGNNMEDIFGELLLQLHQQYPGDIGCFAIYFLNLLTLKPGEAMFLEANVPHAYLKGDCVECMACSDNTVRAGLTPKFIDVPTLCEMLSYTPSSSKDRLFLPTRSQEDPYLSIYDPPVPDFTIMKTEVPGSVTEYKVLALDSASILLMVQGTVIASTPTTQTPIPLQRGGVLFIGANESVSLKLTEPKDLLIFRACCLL

[11] = biological target: Peroxisome proliferator-activated receptor gamma/Nuclear receptor coactivator 2 (Homo sapiens, UniProt P37231); experiment: (§1) TR-FRET dose response biochemical High Throughput Screening assay for agonists of the steroid receptor coactivator 2 (SRC-2) recruitment by the peroxisome proliferator-activated receptor gamma (PPAR gamma): non-selective agonists. [Related pubchem assays: 1297, 1032 ]; type: functional
[12] = biological target: Peroxisome proliferator-activated receptor gamma/Nuclear receptor coactivator 3 (Homo sapiens, UniProt P37231); experiment: as §1, with “3 (SRC-3)” for “2 (SRC-2)”, “1301 (Confirmation screen.), 1048 (Primary screen.)]” for “1297, 1032 ]”; type: functional
Sequence of Peroxisome proliferator-activated receptor gamma/Nuclear receptor coactivator 3 (P37231 whole entry): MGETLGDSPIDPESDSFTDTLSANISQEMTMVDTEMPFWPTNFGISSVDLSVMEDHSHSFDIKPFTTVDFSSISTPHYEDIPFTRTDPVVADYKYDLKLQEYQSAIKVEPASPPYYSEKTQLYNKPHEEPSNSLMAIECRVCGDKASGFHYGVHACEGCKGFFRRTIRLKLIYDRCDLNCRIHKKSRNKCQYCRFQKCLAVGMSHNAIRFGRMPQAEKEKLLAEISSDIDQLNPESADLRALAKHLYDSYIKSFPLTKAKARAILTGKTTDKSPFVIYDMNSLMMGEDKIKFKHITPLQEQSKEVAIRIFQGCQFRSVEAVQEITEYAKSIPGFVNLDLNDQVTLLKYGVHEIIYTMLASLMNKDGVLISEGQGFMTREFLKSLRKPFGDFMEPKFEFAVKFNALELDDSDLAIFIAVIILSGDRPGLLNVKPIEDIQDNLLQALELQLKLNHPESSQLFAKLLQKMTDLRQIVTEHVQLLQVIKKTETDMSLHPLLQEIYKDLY
Sequence of Peroxisome proliferator-activated receptor gamma/Nuclear receptor coactivator 3 (Q9Y6Q9 whole entry, further chain): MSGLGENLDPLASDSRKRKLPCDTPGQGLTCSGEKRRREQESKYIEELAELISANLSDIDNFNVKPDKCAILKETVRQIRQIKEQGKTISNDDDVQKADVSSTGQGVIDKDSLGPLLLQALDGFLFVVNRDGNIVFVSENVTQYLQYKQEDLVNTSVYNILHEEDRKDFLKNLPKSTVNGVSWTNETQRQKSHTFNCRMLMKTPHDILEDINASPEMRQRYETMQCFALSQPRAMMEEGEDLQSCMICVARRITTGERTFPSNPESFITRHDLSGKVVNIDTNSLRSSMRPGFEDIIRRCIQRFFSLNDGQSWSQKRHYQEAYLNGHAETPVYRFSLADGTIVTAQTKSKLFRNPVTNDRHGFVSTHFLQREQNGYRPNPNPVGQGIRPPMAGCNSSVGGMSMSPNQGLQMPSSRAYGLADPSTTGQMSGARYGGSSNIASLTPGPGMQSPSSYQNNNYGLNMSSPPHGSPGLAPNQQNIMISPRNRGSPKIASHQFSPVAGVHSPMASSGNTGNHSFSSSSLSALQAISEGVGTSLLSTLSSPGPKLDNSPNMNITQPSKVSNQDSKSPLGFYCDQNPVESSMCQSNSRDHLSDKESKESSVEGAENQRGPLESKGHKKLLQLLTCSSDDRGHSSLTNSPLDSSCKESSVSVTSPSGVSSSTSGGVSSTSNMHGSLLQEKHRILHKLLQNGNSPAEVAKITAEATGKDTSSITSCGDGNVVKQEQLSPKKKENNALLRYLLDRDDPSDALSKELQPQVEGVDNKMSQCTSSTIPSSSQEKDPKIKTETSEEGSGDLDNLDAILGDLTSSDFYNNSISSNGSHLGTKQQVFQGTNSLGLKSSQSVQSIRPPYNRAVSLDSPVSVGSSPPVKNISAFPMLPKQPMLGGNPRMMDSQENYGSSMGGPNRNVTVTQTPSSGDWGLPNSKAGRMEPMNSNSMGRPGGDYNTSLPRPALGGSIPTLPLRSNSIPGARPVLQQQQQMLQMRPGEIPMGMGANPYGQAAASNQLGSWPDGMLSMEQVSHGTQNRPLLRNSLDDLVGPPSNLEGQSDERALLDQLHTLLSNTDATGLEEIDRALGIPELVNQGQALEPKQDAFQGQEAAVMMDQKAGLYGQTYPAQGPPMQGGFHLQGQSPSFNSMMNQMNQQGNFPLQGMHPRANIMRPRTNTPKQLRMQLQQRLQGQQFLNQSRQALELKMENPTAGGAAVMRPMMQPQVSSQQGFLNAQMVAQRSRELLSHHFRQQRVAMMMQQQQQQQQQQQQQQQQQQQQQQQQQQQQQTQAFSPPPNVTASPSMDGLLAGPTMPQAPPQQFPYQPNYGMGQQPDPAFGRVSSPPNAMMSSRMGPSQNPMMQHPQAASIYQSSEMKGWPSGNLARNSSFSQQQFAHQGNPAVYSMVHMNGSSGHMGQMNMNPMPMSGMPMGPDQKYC

[13] = biological target: Peroxisome proliferator-activated receptor gamma/Nuclear receptor coactivator 1 (Homo sapiens, UniProt P37231); experiment: as §1, with “1 (SRC-1)” for “2 (SRC-2)”, “assays (depositor defined):AID1300, AID1808, AID504735, AID631]” for “assays: 1297, 1032 ]”; type: protein assay
Phosphomannomutase 2 = Phosphomannomutase 2 (Homo sapiens, UniProt O15305); experiment: Counter screen SAR assay for PMM2 inhibitors via a fluorescence intensity assay. [Related pubchem assays (depositor defined):AID1545, AID1574]
Sequence of Phosphomannomutase 2 (O15305 whole entry): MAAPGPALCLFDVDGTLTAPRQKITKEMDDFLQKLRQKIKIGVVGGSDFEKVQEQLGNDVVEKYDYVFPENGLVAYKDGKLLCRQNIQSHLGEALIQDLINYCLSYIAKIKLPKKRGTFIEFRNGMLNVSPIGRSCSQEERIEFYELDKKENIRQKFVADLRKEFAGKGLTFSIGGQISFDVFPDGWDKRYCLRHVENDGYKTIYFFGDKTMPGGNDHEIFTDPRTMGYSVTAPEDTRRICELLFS

cells = type: functional, cell-based; conditions: INS-1E
[14] = IC50 of insulin release inhibition, rat insulinoma INS-1E line, 5 mM glucose, cell-based (AID 1117331); type: functional
[15] = growth inhibition of PfATP4-mutant resistant parasites – NITD609-resistant line, SYBR Green, dry powder, dose response (AID 1159571); type: functional, cell-based;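 also: parasites synchronized at ring stage by sorbitol before testing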
[16] = Plasmodium falciparum Dd2 Sybr green parasite growth Measured in Cell-Based and Microorganism Combination System Using Plate Reader - 2153-01_Inhibitor_Dose_DryPowder_Activity_Set3.; type: functional
[17] = P. falciparum Dd2 growth inhibitors, dose response, SYBR Green, cherry-picked samples (AID 1159567); type: functional, cell-based
[18] = Dd2 malaria parasite growth inhibition potency – SYBR Green, dry powder samples, dose response (AID 1159566); type: functional, cell-based;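 also: potency for growth inhibition with lower SYBR green DNA signal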
[19] = toxicity to human hepatoma HepG2 cells – cell-based, cherry-picked samples, cytotoxicity control, dose response (AID 1159577); type: functional
[20] = toxicity to human HepG2 hepatoma cells – cell-based, plate reader, dry powder samples, cytotoxicity control, dose response (AID 1159569); type: functional;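 also: inhibitor potency with signal falling toward the positive control level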
[21] = growth inhibition of yeast DHODH-expressing 3D7 parasites – SYBR Green, dry powder samples, dose response (AID 1159570); type: functional, cell-based;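 also: parasite growth measured after 72 hours of compound exposure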
[22] = Dd2 parasite growth inhibition in erythrocytes – SYBR Green, dry powder samples, set 9, dose response (AID 1159568); type: functional, cell-based

SMILES: Cc1ccc(C(C)C)c(OCCn2c(=S)[nH]c3cccc(F)c32)c1
AC50 [1]: 30.2 µM (active)

SMILES: CN(C)CCc1cc2c(c3c1ccc1ccccc13)OCO2
EC50 [2]: > 120 µM (not active)
AC50 [3]: 4.76 µM (active)
IC50 [4]: > 99 µM (inactive)
AC50 [5]: 39.9 µM (active)
AC50 [6]: 1.29 µM (active)

IC50 [7]: > 60 µM (not active)
SMILES: COC(=O)c1ccc(NC(=O)c2ccc(C)cc2)o1

EC50 [8]: 4.22 µM (active)
SMILES: CCOCC(=O)Nc1cccc(-c2nc3cccnc3s2)c1C

IC50 [9]: > 93.1 µM (not active)
IC50 [10]: > 50 µM (inactive)
EC50 [11]: 3.25 µM (active)
EC50 [12]: > 79.4 µM (not active)
EC50 [13]: 7.33 µM (active)
IC50 (Phosphomannomutase 2): > 100 µM (inactive)
SMILES: Sc1nnc(-c2cccc(Br)c2)o1

SMILES: CC(C)(Cc1c[nH]c2ccccc12)NCC(O)COc1ccccc1C#N (centres undefined) [BUCINDOLOL]
IC50 (cells): > 33.3 µM (inactive)
IC50 [14]: 15 µM (inactive)

SMILES: CCCNC(=O)N1[C@H](C#N)[C@H](c2ccc(C#Cc3ccc(F)cc3)cc2)[C@@H]1CO
AC50 [15]: 0.101 µM (active)
AC50 [16]: 0.15 µM (active)
AC50 [17]: < 0.3 µM (active)
AC50 [18]: 0.123 µM (active)
AC50 [19]: > 39 µM (inactive)
AC50 [20]: 41.4 µM (active)
AC50 [21]: 3.48 µM (active)
AC50 [22]: 0.0575 µM (active)
